According to ChEMBL document CHEMBL1201862, “PubChem BioAssay data set” (2004):
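In this assay, cells in 96-well plates receive the compound at five concentrations for 48 hours. Endpoints are linearly interpolated between the surrounding concentrations. GI50 is the concentration that inhibits growth by half.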 Activity calls are given as the source filed them. Cut-off read from the data, not from the text of the source: active = GI50 up to about 1.1 µM and inactive = higher.

How the values were obtained:
Assay in all cases: NCI anticancer screen, dose series, 48 h
786-0 = tested on: 786-0
ACHN = tested on: ACHN
CAKI-1 = tested on: CAKI-1
CCRF-CEM = tested on: CCRF-CEM
DU-145 = tested on: DU-145
HL-60 = tested on: HL-60
Hs-578T = tested on: Hs-578T
IGROV-1 = tested on: IGROV-1
LOX IMVI = tested on: LOX IMVI
M14 = tested on: M14
NCI-H460 = tested on: NCI-H460
NCI-H522 = tested on: NCI-H522
OVCAR-4 = tested on: OVCAR-4
OVCAR-5 = tested on: OVCAR-5
OVCAR-8 = tested on: OVCAR-8
RPMI-8226 = tested on: RPMI-8226
SF-295 = tested on: SF-295
TK-10 = tested on: TK-10
UACC-257 = tested on: UACC-257

Structure (SMILES) | GI50 (786-0) | GI50 (ACHN) | GI50 (CAKI-1) | GI50 (CCRF-CEM) | GI50 (DU-145) | GI50 (HL-60) | GI50 (Hs-578T) | GI50 (IGROV-1) | GI50 (LOX IMVI) | GI50 (M14) | GI50 (NCI-H460) | GI50 (NCI-H522) | GI50 (OVCAR-4) | GI50 (OVCAR-5) | GI50 (OVCAR-8) | GI50 (RPMI-8226) | GI50 (SF-295) | GI50 (TK-10) | GI50 (UACC-257)
C=C(C)CNCC(=C)C.Oc1c(Cl)c(Cl)c(Cl)c(Cl)c1Cl | 19.4 µM (inactive) | 21.6 µM (inactive) | 21.4 µM (inactive) | 26.4 µM (inactive) | 15.2 µM (inactive) | 3.15 µM (inactive) | 35.6 µM (inactive) | 22.1 µM (inactive) | 22.3 µM (inactive) | 26.7 µM (inactive) | > 100 µM (inactive) | 22 µM (inactive) | 23.5 µM (inactive) | 17.1 µM (inactive) | 31.9 µM (inactive) | 20.8 µM (inactive) | 16.5 µM (inactive) | > 100 µM (inactive) | > 100 µM (inactive)
COc1cc2c(cc1OC)-c1cc3cc(OC)c(OC)cc3c(=O)n1CC2 | 23.3 µM (inactive) | 14.4 µM (inactive) | 4.93 µM (inactive) | 3.21 µM (inactive) | 4.57 µM (inactive) | 17.7 µM (inactive) | 6 µM (inactive) | 4.91 µM (inactive) | 13.2 µM (inactive) | 27 µM (inactive) | > 25.6 µM (inactive) | 2.76 µM (inactive) | 30.3 µM (inactive) | > 62.2 µM (inactive) | 41.9 µM (inactive) | 3.16 µM (inactive) | 11.5 µM (inactive) | 8.07 µM (inactive) | 26.1 µM (inactive)
Sc1cnnc2ccc(Br)cc12 | > 100 µM (inactive) | 28.5 µM (inactive) | 73.1 µM (inactive) | 36.9 µM (inactive) | 50.7 µM (inactive) | 36.8 µM (inactive) | 57.3 µM (inactive) | 48.1 µM (inactive) | 46 µM (inactive) | 61 µM (inactive) | 35.6 µM (inactive) | 28 µM (inactive) | 35.9 µM (inactive) | > 100 µM (inactive) | 59.2 µM (inactive) | 69 µM (inactive) | 34 µM (inactive) | 38.6 µM (inactive) | 29.4 µM (inactive)
CC(C)C1CSC2N1C(=O)C2(OCc1ccccc1)C1CC1 (centres undefined) | > 100 µM (inactive) | > 100 µM (inactive) | > 100 µM (inactive) | > 100 µM (inactive) | > 100 µM (inactive) | 73.6 µM (inactive) | > 100 µM (inactive) | > 100 µM (inactive) | > 100 µM (inactive) | > 100 µM (inactive) | > 100 µM (inactive) | > 100 µM (inactive) | > 100 µM (inactive) | > 100 µM (inactive) | > 100 µM (inactive) | 89.1 µM (inactive) | > 100 µM (inactive) | > 100 µM (inactive) | > 100 µM (inactive)
C=CCCCCOC1C=CC(O)C(CO)O1 (centres undefined) | > 100 µM (inactive) | > 100 µM (inactive) | > 100 µM (inactive) | > 100 µM (inactive) | > 100 µM (inactive) | > 100 µM (inactive) | 30.1 µM (inactive) | > 100 µM (inactive) | > 100 µM (inactive) | > 100 µM (inactive) | > 100 µM (inactive) | > 100 µM (inactive) | > 100 µM (inactive) | > 100 µM (inactive) | > 100 µM (inactive) | > 100 µM (inactive) | > 100 µM (inactive) | > 100 µM (inactive) | > 100 µM (inactive)
COc1cc(NS(C)(=O)=O)ccc1Nc1ccnc2ccc3[nH]ccc3c12 | 14.6 µM (inactive) | 18.4 µM (inactive) | 17.3 µM (inactive) | 10.4 µM (inactive) | 14.4 µM (inactive) | 31.5 µM (inactive) | 21.3 µM (inactive) | 16.1 µM (inactive) | 15.2 µM (inactive) | 16.4 µM (inactive) | 18.2 µM (inactive) | 5.6 µM (inactive) | 14.3 µM (inactive) | 16.6 µM (inactive) | 13.6 µM (inactive) | 15 µM (inactive) | 18.2 µM (inactive) | 16.3 µM (inactive) | 18.2 µM (inactive)
O/N=C1\CCc2cc3c(cc21)CCC3 | > 100 µM (inactive) | > 100 µM (inactive) | > 100 µM (inactive) | > 100 µM (inactive) | > 100 µM (inactive) | 67.5 µM (inactive) | 34.9 µM (inactive) | > 100 µM (inactive) | > 100 µM (inactive) | > 100 µM (inactive) | > 100 µM (inactive) | > 100 µM (inactive) | > 100 µM (inactive) | > 100 µM (inactive) | > 100 µM (inactive) | > 100 µM (inactive) | > 100 µM (inactive) | > 100 µM (inactive) | > 100 µM (inactive)
O=C1C(Cl)C(c2cc3cc(Br)ccc3nc2Cl)N1c1ccc(F)c(Cl)c1 (centres undefined) | 1.09 µM (active) | 8.53 µM (inactive) | 0.857 µM (active) | 0.418 µM (active) | 8.02 µM (inactive) | 2.47 µM (inactive) | 20.1 µM (inactive) | 0.957 µM (active) | 0.055 µM (active) | 9.42 µM (inactive) | 11.7 µM (inactive) | 0.275 µM (active) | 1.76 µM (inactive) | 12 µM (inactive) | 6.14 µM (inactive) | 1.36 µM (inactive) | 7.14 µM (inactive) | 6.32 µM (inactive) | 11.4 µM (inactive)
CC(C)(O)C1OCC(C2CCC3(C)C4=CCC5C(C)(C)C(O)CCC5(C)C4CCC23C)CC1O (centres undefined) | 14.2 µM (inactive) | 15.3 µM (inactive) | 16 µM (inactive) | 26.4 µM (inactive) | 17.3 µM (inactive) | > 100 µM (inactive) | 13.8 µM (inactive) | 17.3 µM (inactive) | 17.9 µM (inactive) | 27.7 µM (inactive) | 13.4 µM (inactive) | 11.5 µM (inactive) | 11.8 µM (inactive) | 19.5 µM (inactive) | 14.4 µM (inactive) | 7.94 µM (inactive) | 13.9 µM (inactive) | 13.2 µM (inactive) | 18.4 µM (inactive)
C=CCN(c1cc(OC)c2[nH]cc(C)c2c1[N+](=O)[O-])S(C)(=O)=O | > 100 µM (inactive) | > 100 µM (inactive) | 2.55 µM (inactive) | > 100 µM (inactive) | > 100 µM (inactive) | > 100 µM (inactive) | > 100 µM (inactive) | > 100 µM (inactive) | > 100 µM (inactive) | > 100 µM (inactive) | > 100 µM (inactive) | > 100 µM (inactive) | > 100 µM (inactive) | > 100 µM (inactive) | > 100 µM (inactive) | > 100 µM (inactive) | > 100 µM (inactive) | > 100 µM (inactive) | > 100 µM (inactive)
O=C(O)CO/N=C1/C(=C2/C(=O)Nc3ccccc32)Nc2ccccc21 | 63.4 µM (inactive) | > 100 µM (inactive) | 25.8 µM (inactive) | 43.1 µM (inactive) | 44.3 µM (inactive) | 64.4 µM (inactive) | 29.6 µM (inactive) | 22.9 µM (inactive) | 28.4 µM (inactive) | 41.1 µM (inactive) | 72.8 µM (inactive) | 52.6 µM (inactive) | 48.5 µM (inactive) | > 100 µM (inactive) | > 100 µM (inactive) | > 100 µM (inactive) | 89.9 µM (inactive) | > 100 µM (inactive) | > 100 µM (inactive)
